Key:
[1] = tested on: MDA-MB-231 cells
[2] = tested on: PBMC; conditions: 12.5 µM

Compound | Average (percentage cell inhibition), Dmastoparan MDA-MB231 12.5uM [1] [%] | Average (percentage cell inhibition), Mastoparan PBMC [2] [%]
CC[C@H](C)[C@H](N)C(=O)N[C@@H](CC(N)=O)C(=O)N[C@@H](CC(C)C)C(=O)N[C@@H](CCCCN)C(=O)N[C@@H](C)C(=O)N[C@@H](CC(C)C)C(=O)N[C@@H](C)C(=O)N[C@@H](C)C(=O)N[C@@H](CC(C)C)C(=O)N[C@@H](C)C(=O)N[C@@H](CCCCN)C(=O)N[C@@H](CCCCN)C(=O)N[C@H](C(=O)N[C@@H](C)C(N)=O)[C@@H](C)CC [A14] | 12.3553 | 6.423
CC[C@H](C)[C@H](N)C(=O)N[C@@H](CC(N)=O)C(=O)N[C@@H](CC(C)C)C(=O)N[C@@H](CCCCN)C(=O)N[C@@H](C)C(=O)N[C@@H](CC(C)C)C(=O)N[C@@H](C)C(=O)N[C@@H](C)C(=O)N[C@@H](CC(C)C)C(=O)N[C@@H](C)C(=O)N1CCC[C@H]1C(=O)N[C@@H](CCCCN)C(=O)N[C@H](C(=O)N[C@@H](CC(C)C)C(N)=O)[C@@H](C)CC [P11] | -0.07814 | -9.695
CC[C@H](C)[C@H](N)C(=O)N[C@@H](CC(N)=O)C(=O)N[C@@H](CC(C)C)C(=O)N[C@@H](CCCCN)C(=O)N[C@@H](C)C(=O)N[C@@H](CC(C)C)C(=O)N[C@@H](C)C(=O)N[C@@H](C)C(=O)N[C@@H](CC(N)=O)C(=O)N[C@@H](C)C(=O)N[C@@H](CCCCN)C(=O)N[C@@H](CCCCN)C(=O)N[C@H](C(=O)N[C@@H](CC(C)C)C(N)=O)[C@@H](C)CC [N9] | 3.242 | 3.083
CC[C@H](C)[C@H](N)C(=O)N[C@@H](CCCCN)C(=O)N[C@@H](CC(C)C)C(=O)N[C@@H](CCCCN)C(=O)N[C@@H](C)C(=O)N[C@@H](CC(C)C)C(=O)N[C@@H](C)C(=O)N[C@@H](C)C(=O)N[C@@H](CC(C)C)C(=O)N[C@@H](C)C(=O)N[C@@H](CCCCN)C(=O)N[C@@H](CCCCN)C(=O)N[C@H](C(=O)N[C@@H](CC(C)C)C(N)=O)[C@@H](C)CC [K2] | 44.3131 | 14.3506
CC[C@H](C)[C@H](N)C(=O)N[C@@H](CC(N)=O)C(=O)N[C@@H](CC(C)C)C(=O)N[C@@H](CCCCN)C(=O)N[C@@H](C)C(=O)N[C@@H](CC(C)C)C(=O)N[C@@H](C)C(=O)N[C@@H](C)C(=O)N[C@@H](CC(C)C)C(=O)N[C@@H](C)C(=O)N[C@@H](CCCCN)C(=O)N[C@@H](CCCCN)C(=O)N[C@H](C(=O)N[C@H](C(N)=O)[C@@H](C)O)[C@@H](C)CC [T14] | 36.2451 | 6.663
CC[C@H](C)[C@H](NC(=O)[C@H](CCCCN)NC(=O)[C@H](CCCCN)NC(=O)[C@H](C)NC(=O)[C@H](CC(C)C)NC(=O)[C@H](C)NC(=O)[C@H](C)NC(=O)[C@H](CC(C)C)NC(=O)[C@H](C)NC(=O)[C@H](CCCCN)NC(=O)[C@H](CC(C)C)NC(=O)[C@H](CC(N)=O)NC(=O)[C@@H](N)Cc1ccc(O)cc1)C(=O)N[C@@H](CC(C)C)C(N)=O [Y1] | 48.2987 | 14.8394
CC[C@H](C)[C@H](N)C(=O)N[C@@H](CC(N)=O)C(=O)N[C@@H](CC(C)C)C(=O)N[C@@H](CCCCN)C(=O)N[C@@H](C)C(=O)N[C@@H](CCCCN)C(=O)N[C@@H](C)C(=O)N[C@@H](C)C(=O)N[C@@H](CC(C)C)C(=O)N[C@@H](C)C(=O)N[C@@H](CCCCN)C(=O)N[C@@H](CCCCN)C(=O)N[C@H](C(=O)N[C@@H](CC(C)C)C(N)=O)[C@@H](C)CC [K6] | 7.2133 | -1.883
CC[C@H](C)[C@H](N)C(=O)N[C@@H](CC(N)=O)C(=O)N[C@@H](CC(C)C)C(=O)N[C@@H](CCCCN)C(=O)N[C@@H](C)C(=O)N[C@@H](CC(C)C)C(=O)N[C@@H](CCCCN)C(=O)N[C@@H](C)C(=O)N[C@@H](CC(C)C)C(=O)N[C@@H](C)C(=O)N[C@@H](CCCCN)C(=O)N[C@@H](CCCCN)C(=O)N[C@H](C(=O)N[C@@H](CC(C)C)C(N)=O)[C@@H](C)CC [K7] | 38.2404 | 5.806
CC[C@H](C)[C@H](N)C(=O)N[C@@H](CC(N)=O)C(=O)N[C@@H](CC(C)C)C(=O)N[C@@H](CCCCN)C(=O)N[C@@H](C)C(=O)N[C@@H](C)C(=O)N[C@@H](C)C(=O)N[C@@H](C)C(=O)N[C@@H](CC(C)C)C(=O)N[C@@H](C)C(=O)N[C@@H](CCCCN)C(=O)N[C@@H](CCCCN)C(=O)N[C@H](C(=O)N[C@@H](CC(C)C)C(N)=O)[C@@H](C)CC [A6] | 16.1268 | -1.6231
CC[C@H](C)[C@H](NC(=O)[C@H](CCCCN)NC(=O)[C@H](CCCCN)NC(=O)[C@H](C)NC(=O)[C@H](CC(C)C)NC(=O)[C@H](C)NC(=O)[C@H](C)NC(=O)[C@H](CC(C)C)NC(=O)[C@H](C)NC(=O)[C@H](CCCCN)NC(=O)[C@H](CC(C)C)NC(=O)[C@H](CC(N)=O)NC(=O)[C@@H](N)CO)C(=O)N[C@@H](CC(C)C)C(N)=O [S1] | 31.5771 | -13.6432
CC[C@H](C)[C@H](NC(=O)[C@H](CCCCN)NC(=O)[C@H](CCCCN)NC(=O)[C@H](C)NC(=O)[C@H](CC(C)C)NC(=O)[C@H](C)NC(=O)[C@H](C)NC(=O)[C@H](CC(C)C)NC(=O)[C@H](C)NC(=O)[C@H](CCCCN)NC(=O)[C@H](CC(C)C)NC(=O)[C@H](CC(N)=O)NC(=O)[C@@H](N)C(C)C)C(=O)N[C@@H](CC(C)C)C(N)=O [V1] | 28.5856 | 10.9012
CC[C@H](C)[C@H](N)C(=O)N[C@@H](CC(N)=O)C(=O)N[C@@H](CC(C)C)C(=O)N[C@@H](CCCCN)C(=O)N[C@@H](C)C(=O)N[C@@H](CC(C)C)C(=O)N[C@@H](CCCNC(=N)N)C(=O)N[C@@H](C)C(=O)N[C@@H](CC(C)C)C(=O)N[C@@H](C)C(=O)N[C@@H](CCCCN)C(=O)N[C@@H](CCCCN)C(=O)N[C@H](C(=O)N[C@@H](CC(C)C)C(N)=O)[C@@H](C)CC [R7] | 35.9182 | 3.182
CC[C@H](C)[C@H](N)C(=O)N1CCC[C@H]1C(=O)N[C@@H](CC(C)C)C(=O)N[C@@H](CCCCN)C(=O)N[C@@H](C)C(=O)N[C@@H](CC(C)C)C(=O)N[C@@H](C)C(=O)N[C@@H](C)C(=O)N[C@@H](CC(C)C)C(=O)N[C@@H](C)C(=O)N[C@@H](CCCCN)C(=O)N[C@@H](CCCCN)C(=O)N[C@H](C(=O)N[C@@H](CC(C)C)C(N)=O)[C@@H](C)CC [P2] | 36.9174 | -4.49
CC[C@H](C)[C@H](N)C(=O)N[C@@H](CC(N)=O)C(=O)N[C@@H](CCC(N)=O)C(=O)N[C@@H](CCCCN)C(=O)N[C@@H](C)C(=O)N[C@@H](CC(C)C)C(=O)N[C@@H](C)C(=O)N[C@@H](C)C(=O)N[C@@H](CC(C)C)C(=O)N[C@@H](C)C(=O)N[C@@H](CCCCN)C(=O)N[C@@H](CCCCN)C(=O)N[C@H](C(=O)N[C@@H](CC(C)C)C(N)=O)[C@@H](C)CC [Q3] | 20.3646 | 10.4738
CC[C@H](C)[C@H](N)C(=O)N[C@@H](CC(N)=O)C(=O)N[C@@H](CC(C)C)C(=O)N[C@@H](CCCCN)C(=O)N[C@@H](C)C(=O)N[C@@H](CC(C)C)C(=O)N[C@@H](C)C(=O)N[C@@H](C)C(=O)N[C@@H](CC(C)C)C(=O)N[C@@H](C)C(=O)N[C@@H](CCCCN)C(=O)N[C@@H](CCCCN)C(=O)NCC(=O)N[C@@H](CC(C)C)C(N)=O [G13] | 23.4491 | 6.832
CC[C@H](C)[C@H](N)C(=O)N[C@@H](CC(N)=O)C(=O)N[C@@H](CC(C)C)C(=O)N[C@@H](CCCCN)C(=O)N[C@@H](C)C(=O)N[C@@H](CC(C)C)C(=O)N[C@@H](C)C(=O)N[C@@H](C)C(=O)N[C@@H](CC(C)C)C(=O)N[C@@H](C)C(=O)N[C@@H](CCCCN)C(=O)N[C@@H](CCCCN)C(=O)N[C@@H](CO)C(=O)N[C@@H](CC(C)C)C(N)=O [S13] | 39.6113 | -6.27
CC[C@H](C)[C@H](N)C(=O)N[C@@H](CC(N)=O)C(=O)N[C@@H](CC(C)C)C(=O)N1CCC[C@H]1C(=O)N[C@@H](C)C(=O)N[C@@H](CC(C)C)C(=O)N[C@@H](C)C(=O)N[C@@H](C)C(=O)N[C@@H](CC(C)C)C(=O)N[C@@H](C)C(=O)N[C@@H](CCCCN)C(=O)N[C@@H](CCCCN)C(=O)N[C@H](C(=O)N[C@@H](CC(C)C)C(N)=O)[C@@H](C)CC [P4] | 10.9719 | -6.014
CC[C@H](C)[C@H](N)C(=O)N[C@@H](CC(N)=O)C(=O)N[C@@H](CC(C)C)C(=O)N[C@@H](CCCCN)C(=O)N[C@@H](C)C(=O)N[C@@H](CC(C)C)C(=O)N[C@@H](C)C(=O)N[C@@H](C)C(=O)N[C@@H](CC(C)C)C(=O)N[C@@H](C)C(=O)N[C@@H](CCCCN)C(=O)N[C@@H](CCCNC(=N)N)C(=O)N[C@H](C(=O)N[C@@H](CC(C)C)C(N)=O)[C@@H](C)CC [R12] | 35.2659 | -4.156
CC[C@H](C)[C@H](N)C(=O)N[C@@H](CC(N)=O)C(=O)N[C@@H](CC(C)C)C(=O)N[C@@H](CCCCN)C(=O)N[C@@H](C)C(=O)N[C@@H](CC(C)C)C(=O)N[C@@H](C)C(=O)N[C@@H](C)C(=O)N[C@@H](CC(C)C)C(=O)N[C@@H](C)C(=O)N[C@H](C(=O)N[C@@H](CCCCN)C(=O)N[C@H](C(=O)N[C@@H](CC(C)C)C(N)=O)[C@@H](C)CC)[C@@H](C)O [T11] | 32.1267 | 10.2886
CC[C@H](C)[C@H](N)C(=O)N[C@@H](CC(N)=O)C(=O)N[C@@H](CC(C)C)C(=O)N[C@@H](CCCCN)C(=O)N[C@@H](C)C(=O)N[C@@H](CC(C)C)C(=O)N[C@@H](C)C(=O)N[C@@H](C)C(=O)N[C@@H](CC(C)C)C(=O)N[C@@H](C)C(=O)N[C@@H](CCCCN)C(=O)N[C@@H](CCCCN)C(=O)N[C@H](C(=O)N[C@@H](CCC(=O)O)C(N)=O)[C@@H](C)CC [E14] | 33.8434 | 2.998

— PMC12748989 (Nature Communications, 2025)
